{"source": "ChEMBL document CHEMBL1150601", "about": "“Lyngbouilloside, a novel glycosidic macrolide from the marine cyanobacterium Lyngbya bouillonii” (J Nat Prod, 2002)", "assay": "Cytotoxicity against mouse Neuro2a cells", "assay_type": "functional, cell-based", "conditions": "N2a", "note": "pIC50: −log10 of the molar value."}
{"smiles": "CC/C=C/C=C/CC[C@]1(C)C[C@H](O)[C@H](C)CC[C@H]2C[C@@H](O[C@@H]3O[C@@H](C)[C@H](OC)[C@@H](O)[C@H]3OC)C[C@@](O)(CC(=O)O1)O2", "note": "[LYNGBOUILLOSIDE]", "values": [{"measurement": "pIC50", "value": 4.77}]}
